# Assay results from patent publication EP0116208A1, “Mitomycin analogues” (KYOWA HAKKO KOGYO CO., LTD., priority 1982, dated 1984).
# How the values were obtained:
# Acute toxicity (LD50) = test: Acute toxicity (LD50); design: species or system mice; conditions: mouse, in vivo; death ratio observed for 14 days; Behrens-Korber's method
# Text: (3) Acute toxicity (LD50):
# On each occasion, the test compound was given to the test animal.
# Sarcoma 180 solid tumour = test: Effect on Sarcoma 180 solid tumour (ED50, chemotherapeutic index); assay type: in vivo, ddy mice; conditions: Anti-tumour activity; ratio of LD50 to ED50; ED50 = dose giving T/C 0.5 of Sarcoma 180 solid tumour volume, intraperitoneal injection
# Text: (1) Effect on Sarcoma 180 solid tumour:
# 5 x 10^6 cells of Sarcoma 180 solid tumour were innoculated into the abdominal cavities of groups of ddy mice, each group consisting of 5 mice. 7..days after this, on each occasion, the tumour cells were collected from the ascites of the mouse. The cells were washed with a sterilized physiological sodium chloride solution and used to prepare a cell suspension containing 5 x 10^7 cells per ml of a sterilized physiological solution of sodium chloride, of which 0.1 ml was injected under the skin of the right armpit of a ddy male mouse (body weight 20 ±2 g). A test compound was dissolved in a physiological solution of sodium chloride or a similar solution containing Tween 80 (a surfactant commercially available from Atlas Chemical Industries, Inc., U.S.A.). 24 hours after the implantation of the tumours cells, the test compound (0.1 to 0.2 ml) was injected into the test mice intraperitoneally. In order to determine the antitumour activity of the test compound, 7 days after the implantation of the tumour cells, on each occasion, the major axis (a) and minor axis (b) of the tumour were measured to calculate the volume of the tumour ['a' x ^Ib'/2]. The anti-tumour effect was evaluated by the ratio of the tumour volume in the test animals (T) to the corresponding volume of the control (untreated) animals (C).
# (2) Determination of ED50.
# A dose capable of reducing the volume of a Sarcoma 180 solid tumour to 50% of the corresponding volume of the untreated group on average was defined as the ED50. T/C ratios and the doses were respectively plotted on the ordinate in arithmetic scale and abscissa in logarithmic scale on graph paper, from which the relationship between the doses and the T/C ratios was calculated as a straight line by the least square method. From the straight tropic line thus-obtained, the dose corresponding to a T/C of 0.5 was determined.
# [1] = Effect upon the number of peripheral leukocytes (WBC 4000); assay type: in vivo; conditions: mouse, Toxicity against bone marrow, WBC 4000 = dose giving 4000 leukocytes/mm3, Sarcoma 180 bearing mice, read-out: WBC 4000/ ED50
# Protocol: (5) Effect upon the number of peripheral leukocytes:
# 5 x 10^6 cells of Sarcoma 180 solid tumour were implanted under the skin of each mouse at the right armpit. 24 hours after this, venous blood (0.02 ml) was collected from the eyepit of the mouse and suspended in Cell-Kit Seven solution (10 ml; commercially available from Toa Iryo Denshi K.K., Japan).
# To the suspension, a drop of saponin solution was added to dissolve the red cells and the number of leukocytes were counted using a microcell counter. The number of leukocytes and the corresponding dose were respectively plotted on the ordinate in arithmetic scale and on the abscissa in logarithmic scale on graph paper to investigate the relationship between dosage and the number of peripherical leukocytes. A dose capable of giving 4000 leukocytes/mm3 was defined as WBC 4000, which corresponded to about 1/2 the number of peripherical leukocytes in normal mice.
# The greater the ratio of WBC 4000 to ED50 the smaller the decrease in the number of peripherical leukocytes viz. the lower the toxicity against bone marrow in the area of the effective dose.
Compound,LD50 at 336 h (Acute toxicity (LD50)) [mg/kg],C.I. (Sarcoma 180 solid tumour),selectivity ratio [1]
"COC12C(COC(N)=O)C3=C(C(=O)C(C)=C(NCCSSCC(O)CO)C3=O)N1CC1NC12 (stereo not drawn) [o, 7-N-[2-(2,3-dihydroxypropyl)dithioethyl]mitomycin C]",22.5,–,–
"CC1=C(NCCSSCCN)C(=O)C2=C(C1=O)N1CC3C(N3C)C1(O)C2COC(N)=O (stereo not drawn) [c, 7-N-[2-(2-aminoethyl)dithioethyl]mitomycin D]",74.3,3.11,1.87
"COC12C(COC(N)=O)C3=C(C(=O)C(C)=C(NCCSSCCNC4=C(C)C(=O)C5=C(C4=O)C(COC(N)=O)C4(OC)C6NC6CN54)C3=O)N1CC1NC12 (stereo not drawn) [s, 7-N-, 7'-N'-dithiodiethylenedimitomycin C]",18.8,2.98,2.63
"COC12C(COC(N)=O)C3=C(C(=O)C(C)=C(NCCSSCCO)C3=O)N1CC1NC12 (stereo not drawn) [i, 7-N-[2-(2-hydroxyethyl)dithioethyl]mitomycin C]",≤ 11.2,≤2.12,2.13
"COC12C(COC(N)=O)C3=C(C(=O)C(C)=C(NC4CSSC4)C3=O)N1CC1NC12 (stereo not drawn) [j, 7-N-(1,2-dithiolan-4-yl)mitomycin C]",5.25,–,–
"CC1=C(NCCSSCCNC2=C(C)C(=O)C3=C(C2=O)C(COC(N)=O)C2(O)C4C(CN32)N4C)C(=O)C2=C(C1=O)N1CC3C(N3C)C1(O)C2COC(N)=O (stereo not drawn) [a, 7-N,7'-N'-dithiodiethylenedimitomycin D]",> 60,>2.99,2.29
"COC12C(COC(N)=O)C3=C(C(=O)C(C)=C(NCCSSCCNC4=C(C)C(=O)C5=C(C4=O)C(COC(N)=O)C4(OC)C6C(CN54)N6C)C3=O)N1CC1C2N1C (stereo not drawn) [t, 7-N, 7'-N'-dithiodiethylenediporfiromycin]",33.8,2.15,1.34
"COC12C(COC(N)=O)C3=C(C(=O)C(C)=C(NCCSSCCN)C3=O)N1CC1NC12 (stereo not drawn) [r, 7-N-[2-(2-aminoethyl)dithioethyl)mitomycin C]",13.5,0.73,1.25
"CCSSCCNC1=C(C)C(=O)C2=C(C1=O)C(COC(N)=O)C1(OC)C3NC3CN21 (stereo not drawn) [g, 7-N-(2-ethyldithioethyl)mitomycin C]",5.4,1.64,3.76
"CC1=C(NC2CSSC2)C(=O)C2=C(C1=O)N1CC3C(N3C)C1(O)C2COC(N)=O (stereo not drawn) [l, 7-N-(1,2-dithiolan-4-yl)mitomycin D]",35.6,–,–
